From US9340590B2 (priority 2011, dated 2016)
Where two headings read alike, the source gives them in different places. Positions of bridges follow the written chain, without caps; N, C: chain ends. Non-standard residues stand in square brackets, D forms with d. Residues, ends and D or L forms follow the SMILES beside them. 1Nal = N[C@@H](Cc1cccc2ccccc12)C(=O)O

What was measured:
Assay in all cases: cell-based
[1] = molecular target: T1, hNav1.7 (Homo sapiens, UniProt Q15858); conditions: Nav1.7 Use IC50
[2] = molecular target: T2, hNav1.3 (Homo sapiens, UniProt Q9NY46); format: cell-based; conditions: Nav1.3 Use IC50
[3] = molecular target: T3, hNav1.5 (Homo sapiens, UniProt Q14524)
[4] = molecular target: T1, hNav1.7; format: cell-based; conditions: IonWorks Quattro; clamped to −110 mV, depolarized to −10 mV, 5 min after compound; n=2; read-out: IWQ Use Nav1.7
[5] = molecular target: T3, hNav1.5; conditions: IonWorks Quattro; clamped to −110 mV, depolarized to −10 mV, 5 min after compound; n=2; read-out: IWQ Use Nav1.5
[6] = molecular target: T2, hNav1.3; conditions: IonWorks Quattro; clamped to −110 mV, depolarized to −10 mV, 5 min after compound; n=2; read-out: IWQ Use Nav1.3

T2 sequence (Q9NY46 whole entry, looked up): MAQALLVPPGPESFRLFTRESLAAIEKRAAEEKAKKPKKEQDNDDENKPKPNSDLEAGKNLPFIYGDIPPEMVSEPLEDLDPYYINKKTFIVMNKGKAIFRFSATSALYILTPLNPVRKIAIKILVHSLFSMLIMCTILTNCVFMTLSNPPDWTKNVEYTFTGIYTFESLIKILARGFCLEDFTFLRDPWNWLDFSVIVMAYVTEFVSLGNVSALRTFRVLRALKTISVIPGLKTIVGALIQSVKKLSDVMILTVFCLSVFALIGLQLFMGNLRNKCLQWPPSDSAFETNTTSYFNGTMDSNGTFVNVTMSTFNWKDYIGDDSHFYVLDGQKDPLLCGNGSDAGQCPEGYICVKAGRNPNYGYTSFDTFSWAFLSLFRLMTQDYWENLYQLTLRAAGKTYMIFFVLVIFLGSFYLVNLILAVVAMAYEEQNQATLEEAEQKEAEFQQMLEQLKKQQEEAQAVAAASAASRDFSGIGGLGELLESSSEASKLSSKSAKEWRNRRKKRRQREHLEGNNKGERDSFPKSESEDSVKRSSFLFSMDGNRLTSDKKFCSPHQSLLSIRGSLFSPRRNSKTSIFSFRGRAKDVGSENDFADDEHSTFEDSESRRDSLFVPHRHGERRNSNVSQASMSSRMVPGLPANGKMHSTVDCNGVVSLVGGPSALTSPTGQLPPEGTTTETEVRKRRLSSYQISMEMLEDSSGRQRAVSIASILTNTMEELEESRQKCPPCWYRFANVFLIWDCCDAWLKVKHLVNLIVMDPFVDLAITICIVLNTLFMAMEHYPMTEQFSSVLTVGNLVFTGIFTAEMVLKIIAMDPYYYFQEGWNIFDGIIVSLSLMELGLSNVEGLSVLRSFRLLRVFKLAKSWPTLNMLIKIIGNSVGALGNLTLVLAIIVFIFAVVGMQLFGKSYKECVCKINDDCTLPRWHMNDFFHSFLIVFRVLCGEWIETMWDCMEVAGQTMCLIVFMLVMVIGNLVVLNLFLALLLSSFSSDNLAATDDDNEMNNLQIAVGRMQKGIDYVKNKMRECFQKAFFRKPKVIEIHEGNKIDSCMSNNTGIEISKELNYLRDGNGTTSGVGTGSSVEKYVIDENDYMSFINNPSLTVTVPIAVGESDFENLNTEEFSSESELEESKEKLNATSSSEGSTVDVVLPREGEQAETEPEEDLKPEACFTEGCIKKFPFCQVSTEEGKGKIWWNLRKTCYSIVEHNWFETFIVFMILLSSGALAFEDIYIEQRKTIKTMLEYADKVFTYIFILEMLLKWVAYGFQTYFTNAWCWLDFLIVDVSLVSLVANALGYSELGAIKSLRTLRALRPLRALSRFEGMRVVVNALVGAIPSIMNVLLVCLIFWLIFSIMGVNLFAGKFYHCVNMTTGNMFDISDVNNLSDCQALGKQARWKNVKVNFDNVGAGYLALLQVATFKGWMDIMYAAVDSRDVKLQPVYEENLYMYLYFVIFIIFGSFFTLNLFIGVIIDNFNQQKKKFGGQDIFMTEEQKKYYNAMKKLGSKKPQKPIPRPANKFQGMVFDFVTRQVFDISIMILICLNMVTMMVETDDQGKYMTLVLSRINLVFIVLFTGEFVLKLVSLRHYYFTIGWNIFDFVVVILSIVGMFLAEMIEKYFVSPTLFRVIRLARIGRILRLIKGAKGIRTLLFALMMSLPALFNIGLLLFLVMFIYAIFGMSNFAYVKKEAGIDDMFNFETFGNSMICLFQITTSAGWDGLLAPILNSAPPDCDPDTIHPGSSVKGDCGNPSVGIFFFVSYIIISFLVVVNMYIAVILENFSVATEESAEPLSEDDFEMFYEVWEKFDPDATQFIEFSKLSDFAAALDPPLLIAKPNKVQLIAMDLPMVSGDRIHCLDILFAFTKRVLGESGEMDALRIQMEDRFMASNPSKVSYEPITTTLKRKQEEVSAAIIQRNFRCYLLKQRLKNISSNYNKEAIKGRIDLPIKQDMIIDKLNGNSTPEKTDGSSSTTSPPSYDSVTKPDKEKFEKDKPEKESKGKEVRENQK
T3 sequence (Q14524 whole entry, looked up): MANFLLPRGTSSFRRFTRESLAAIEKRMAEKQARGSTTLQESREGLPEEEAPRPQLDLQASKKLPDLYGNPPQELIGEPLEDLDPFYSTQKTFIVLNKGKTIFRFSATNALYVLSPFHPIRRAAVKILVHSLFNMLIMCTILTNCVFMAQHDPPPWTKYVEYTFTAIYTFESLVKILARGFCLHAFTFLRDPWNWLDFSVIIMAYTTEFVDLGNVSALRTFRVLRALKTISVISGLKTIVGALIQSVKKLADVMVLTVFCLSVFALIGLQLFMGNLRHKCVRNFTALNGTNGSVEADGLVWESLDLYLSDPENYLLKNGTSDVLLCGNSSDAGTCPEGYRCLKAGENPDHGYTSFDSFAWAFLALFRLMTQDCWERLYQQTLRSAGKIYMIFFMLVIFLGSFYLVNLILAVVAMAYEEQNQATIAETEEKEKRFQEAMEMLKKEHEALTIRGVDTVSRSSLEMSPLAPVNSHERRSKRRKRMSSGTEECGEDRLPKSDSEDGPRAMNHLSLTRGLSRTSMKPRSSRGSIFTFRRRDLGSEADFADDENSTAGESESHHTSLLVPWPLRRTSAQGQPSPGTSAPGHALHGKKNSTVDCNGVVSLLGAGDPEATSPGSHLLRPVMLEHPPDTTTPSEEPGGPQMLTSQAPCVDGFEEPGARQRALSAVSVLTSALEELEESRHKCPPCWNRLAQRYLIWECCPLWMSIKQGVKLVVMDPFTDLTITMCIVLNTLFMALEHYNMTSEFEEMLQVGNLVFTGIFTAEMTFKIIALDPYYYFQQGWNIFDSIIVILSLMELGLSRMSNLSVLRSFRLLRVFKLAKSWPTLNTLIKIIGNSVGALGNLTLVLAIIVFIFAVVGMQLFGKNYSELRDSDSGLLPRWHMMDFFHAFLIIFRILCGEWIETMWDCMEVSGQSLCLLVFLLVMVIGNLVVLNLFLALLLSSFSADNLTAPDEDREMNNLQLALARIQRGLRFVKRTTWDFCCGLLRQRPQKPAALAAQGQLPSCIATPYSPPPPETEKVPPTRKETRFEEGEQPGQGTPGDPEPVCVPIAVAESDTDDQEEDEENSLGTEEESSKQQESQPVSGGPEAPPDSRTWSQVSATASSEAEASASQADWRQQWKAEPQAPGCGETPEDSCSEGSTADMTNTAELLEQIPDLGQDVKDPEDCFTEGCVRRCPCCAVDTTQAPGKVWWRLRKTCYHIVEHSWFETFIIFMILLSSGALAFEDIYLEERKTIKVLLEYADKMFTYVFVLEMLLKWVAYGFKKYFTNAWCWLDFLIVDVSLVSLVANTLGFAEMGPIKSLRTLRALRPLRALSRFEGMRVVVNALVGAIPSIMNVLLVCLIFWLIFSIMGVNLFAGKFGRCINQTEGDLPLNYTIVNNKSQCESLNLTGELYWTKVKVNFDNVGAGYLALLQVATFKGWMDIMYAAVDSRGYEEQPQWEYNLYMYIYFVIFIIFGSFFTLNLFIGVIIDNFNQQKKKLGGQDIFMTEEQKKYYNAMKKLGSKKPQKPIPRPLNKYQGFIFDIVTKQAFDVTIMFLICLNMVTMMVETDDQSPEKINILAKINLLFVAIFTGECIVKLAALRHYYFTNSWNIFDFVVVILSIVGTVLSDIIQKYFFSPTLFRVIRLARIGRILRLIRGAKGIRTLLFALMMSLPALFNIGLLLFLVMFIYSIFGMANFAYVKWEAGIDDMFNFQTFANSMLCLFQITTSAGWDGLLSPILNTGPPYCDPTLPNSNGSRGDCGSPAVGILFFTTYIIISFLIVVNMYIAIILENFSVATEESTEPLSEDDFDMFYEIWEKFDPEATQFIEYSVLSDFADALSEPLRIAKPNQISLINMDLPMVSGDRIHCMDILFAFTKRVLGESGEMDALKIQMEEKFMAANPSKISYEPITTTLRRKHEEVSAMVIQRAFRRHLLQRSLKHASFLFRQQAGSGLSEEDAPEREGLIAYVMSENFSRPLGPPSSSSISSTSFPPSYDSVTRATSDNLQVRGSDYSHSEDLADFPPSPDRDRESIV

## CC[C@H](C)[C@@H]1NC(=O)[C@@H]2CSSC[C@@H]3NC(=O)[C@H](C(C)C)NC(=O)[C@H](CC(C)C)NC(=O)[C@H](CC(N)=O)NC(=O)[C@@H]4CCCN4C(=O)[C@H](CCCNC(=N)N)NC(=O)[C@H](CSSC[C@H](NC(=O)[C@@H](N)CC(=O)O)C(=O)N[C@@H](CC(C)C)C(=O)NCC(=O)N[C@@H](Cc4ccccc4)C(=O)N[C@@H](CCSC)C(=O)N[C@@H](CCCNC(=N)N)C(=O)N[C@@H](CCCCN)C(=O)N2)NC(=O)[C@H](CSSC[C@@H](C(=O)N[C@@H](CCCCN)C(=O)N[C@@H](Cc2ccc(O)cc2)C(=O)N[C@@H](CCC(=O)O)C(=O)N[C@@H](Cc2ccccc2)C(N)=O)NC(=O)[C@H](Cc2c[nH]c4ccccc24)NC(=O)[C@H](CCCCN)NC(=O)[C@H](Cc2cnc[nH]2)NC(=O)[C@H]([C@@H](C)O)NC(=O)[C@H](CCCNC(=N)N)NC(=O)[C@H](CO)NC3=O)NC(=O)[C@H](CCCCN)NC(=O)[C@H](CC(=O)O)NC(=O)[C@H](CC(N)=O)NC(=O)[C@H](CC(=O)O)NC(=O)[C@@H]2CCCN2C1=O [[Glu33]GpTx-1(1-34)] (H-DCLGFMRKCIPDNDKCCRPNLVCSRTHKWCKYEF-NH2; disulfide 2-17, 9-23, 16-30)
[1]
  IC50: 27 nM
[2]
  IC50: 52 nM
[3]
  IC50: > 10000 nM

## CC[C@H](C)[C@@H]1NC(=O)[C@@H]2CSSC[C@@H]3NC(=O)[C@H](C(C)C)NC(=O)[C@H](CC(C)C)NC(=O)[C@H](CC(N)=O)NC(=O)[C@@H]4CCCN4C(=O)[C@H](CCCNC(=N)N)NC(=O)[C@H](CSSC[C@H](NC(=O)[C@@H](N)CC(=O)O)C(=O)N[C@@H](CC(C)C)C(=O)NCC(=O)N[C@@H](Cc4ccccc4)C(=O)N[C@@H](CCSC)C(=O)N[C@@H](CCCNC(=N)N)C(=O)N[C@@H](CCCCN)C(=O)N2)NC(=O)[C@H](CSSC[C@@H](C(=O)N[C@@H](CCCCN)C(=O)N[C@@H](Cc2ccc(O)cc2)C(=O)N[C@H](C(=O)N[C@@H](Cc2ccccc2)C(=O)N[C@@H](Cc2c[nH]c4ccccc24)C(N)=O)C(C)C)NC(=O)[C@H](Cc2c[nH]c4ccccc24)NC(=O)[C@H](CCCCN)NC(=O)[C@H](Cc2c[nH]cn2)NC(=O)[C@H]([C@@H](C)O)NC(=O)[C@H](CCCNC(=N)N)NC(=O)[C@H](CO)NC3=O)NC(=O)[C@H](CCCCN)NC(=O)[C@H](CC(=O)O)NC(=O)[C@H](CC(N)=O)NC(=O)[C@H](CC(=O)O)NC(=O)[C@@H]2CCCN2C1=O [GpTx-1(1-34)-Trp]
[1]
  IC50: 9 nM
[2]
  IC50: 15 nM
[3]
  IC50: 2660 nM

## CC[C@H](C)[C@@H]1NC(=O)[C@@H]2CSSC[C@@H]3NC(=O)[C@H](C(C)C)NC(=O)[C@H](CC(C)C)NC(=O)[C@H](CC(N)=O)NC(=O)[C@@H]4CCCN4C(=O)[C@H](CCCNC(=N)N)NC(=O)[C@H](CSSC[C@H](NC(=O)[C@@H](N)CC(=O)O)C(=O)N[C@@H](CC(C)C)C(=O)NCC(=O)N[C@@H](Cc4ccccc4)C(=O)N[C@@H](CCSC)C(=O)N[C@@H](CCCNC(=N)N)C(=O)N[C@@H](CCCCN)C(=O)N2)NC(=O)[C@H](CSSC[C@@H](C(=O)N[C@@H](CCCCN)C(=O)N[C@@H](Cc2ccc(O)cc2)C(=O)N[C@H](C(=O)N[C@@H](Cc2ccccc2)C(N)=O)C(C)C)NC(=O)[C@H](Cc2c[nH]c4ccccc24)NC(=O)[C@H](CCCNC(=N)N)NC(=O)[C@H](Cc2c[nH]cn2)NC(=O)[C@H]([C@@H](C)O)NC(=O)[C@H](CCCNC(=N)N)NC(=O)[C@H](CO)NC3=O)NC(=O)[C@H](CCCCN)NC(=O)[C@H](CC(=O)O)NC(=O)[C@H](CC(N)=O)NC(=O)[C@H](CC(=O)O)NC(=O)[C@@H]2CCCN2C1=O [[Arg28]GpTx-1(1-34)]
[1]
  IC50: 7 nM
[2]
  IC50: 12 nM
[3]; read-out: Nav1.5 Use IC50
  IC50: 8730 nM

## CC[C@H](C)[C@@H]1NC(=O)[C@@H]2CSSC[C@@H]3NC(=O)[C@H](C(C)C)NC(=O)[C@H](CC(C)C)NC(=O)[C@H](CC(N)=O)NC(=O)[C@@H]4CCCN4C(=O)[C@H](CCCNC(=N)N)NC(=O)[C@H](CSSC[C@H](NC(=O)[C@@H](N)CC(=O)O)C(=O)N[C@@H](CC(C)C)C(=O)NCC(=O)N[C@@H](Cc4ccccc4)C(=O)N[C@@H](CCSC)C(=O)N[C@@H](CCCNC(=N)N)C(=O)N[C@@H](CCCCN)C(=O)N2)NC(=O)[C@H](CSSC[C@@H](C(=O)N[C@@H](CCCCN)C(=O)N[C@@H](Cc2ccc(O)cc2)C(=O)N[C@H](C(=O)N[C@@H](Cc2ccccc2)C(N)=O)C(C)C)NC(=O)[C@H](Cc2c[nH]c4ccccc24)NC(=O)[C@H](CCCCN)NC(=O)[C@H]([C@@H](C)O)NC(=O)[C@H](CCCCN)NC(=O)[C@H](CCCNC(=N)N)NC(=O)[C@H](CO)NC3=O)NC(=O)[C@H](CCCCN)NC(=O)[C@H](CC(=O)O)NC(=O)[C@H](CC(N)=O)NC(=O)[C@H](CC(=O)O)NC(=O)[C@@H]2CCCN2C1=O [[Lys26;Thr27]GpTx-1(1-34)] (H-DCLGFMRKCIPDNDKCCRPNLVCSRKTKWCKYVF-NH2; disulfide 2-17, 9-23, 16-30)
[1]
  IC50: 4 nM
[2]
  IC50: 16 nM
[3]
  IC50: 1390 nM

## CC[C@H](C)[C@@H]1NC(=O)[C@@H]2CSSC[C@@H]3NC(=O)[C@H](C(C)C)NC(=O)[C@H](CC(C)C)NC(=O)[C@H](CC(N)=O)NC(=O)[C@@H]4CCCN4C(=O)[C@H](CCCNC(=N)N)NC(=O)[C@H](CSSC[C@H](NC(=O)[C@@H](N)CC(=O)O)C(=O)N[C@@H](CC(C)C)C(=O)NCC(=O)N[C@@H](Cc4ccccc4)C(=O)N[C@@H](CC(C)C)C(=O)N[C@@H](CCCNC(=N)N)C(=O)N[C@@H](CCCCN)C(=O)N2)NC(=O)[C@H](CSSC[C@@H](C(=O)N[C@@H](CCCCN)C(=O)N[C@@H](Cc2ccc(O)cc2)C(=O)N[C@H](C(=O)N[C@@H](Cc2ccccc2)C(N)=O)C(C)C)NC(=O)[C@H](Cc2c[nH]c4ccccc24)NC(=O)[C@H](CCCCN)NC(=O)[C@H](Cc2cnc[nH]2)NC(=O)[C@H]([C@@H](C)O)NC(=O)[C@H](CCCNC(=N)N)NC(=O)[C@H](CO)NC3=O)NC(=O)[C@H](CCCCN)NC(=O)[C@H](CC(=O)O)NC(=O)[C@H](CC(N)=O)NC(=O)[C@H](CC(=O)O)NC(=O)[C@@H]2CCCN2C1=O [SEQ ID NO: 244] (H-DCLGFLRKCIPDNDKCCRPNLVCSRTHKWCKYVF-NH2; disulfide 2-17, 9-23, 16-30)
[4]
  IC50: 60 nM
[5]
  IC50: 6420 nM
[6]
  IC50: 40 nM
[1]
  IC50: 26 nM
[2]
  IC50: 18 nM

## CC[C@H](C)[C@@H]1NC(=O)[C@@H]2CSSC[C@@H]3NC(=O)[C@H](C(C)C)NC(=O)[C@H](CC(C)C)NC(=O)[C@H](CC(N)=O)NC(=O)[C@@H]4CCCN4C(=O)[C@H](CCCNC(=N)N)NC(=O)[C@H](CSSC[C@H](NC(=O)[C@@H](N)CC(=O)O)C(=O)N[C@@H](CC(C)C)C(=O)NCC(=O)N[C@@H](Cc4ccccc4)C(=O)N[C@@H](CCSC)C(=O)N[C@@H](CCCNC(=N)N)C(=O)N[C@@H](CCCCN)C(=O)N2)NC(=O)[C@H](CSSC[C@@H](C(=O)N[C@@H](CCCCN)C(=O)N[C@@H](Cc2cccc4ccccc24)C(=O)N[C@H](C(=O)N[C@@H](Cc2ccccc2)C(N)=O)C(C)C)NC(=O)[C@H](Cc2c[nH]c4ccccc24)NC(=O)[C@H](CCCCN)NC(=O)[C@H](Cc2cnc[nH]2)NC(=O)[C@H]([C@@H](C)O)NC(=O)[C@H](CCCNC(=N)N)NC(=O)[C@H](CO)NC3=O)NC(=O)[C@H](CCCCN)NC(=O)[C@H](CC(=O)O)NC(=O)[C@H](CC(N)=O)NC(=O)[C@H](CC(=O)O)NC(=O)[C@@H]2CCCN2C1=O [[1-Nal32]GpTx-1(1-34)] (H-DCLGFMRKCIPDNDKCCRPNLVCSRTHKWCK[1Nal]VF-NH2; disulfide 2-17, 9-23, 16-30)
[2]
  IC50: 12 nM
[3]
  IC50: 988 nM

## CC[C@H](C)[C@@H]1NC(=O)[C@@H]2CSSC[C@@H]3NC(=O)[C@H](C(C)C)NC(=O)[C@H](CC(C)C)NC(=O)[C@H](CC(N)=O)NC(=O)[C@@H]4CCCN4C(=O)[C@H](CCCNC(=N)N)NC(=O)[C@H](CSSC[C@H](NC(=O)[C@@H](N)CC(=O)O)C(=O)N[C@@H](CC(C)C)C(=O)NCC(=O)N[C@@H](Cc4ccccc4)C(=O)N[C@@H](CCSC)C(=O)N[C@@H](CCCNC(=N)N)C(=O)N[C@@H](CCCCN)C(=O)N2)NC(=O)[C@H](CSSC[C@@H](C(=O)N[C@@H](CCCCN)C(=O)N[C@@H](Cc2ccc(O)cc2)C(=O)N[C@H](C(=O)N[C@@H](Cc2ccccc2)C(N)=O)C(C)C)NC(=O)[C@H](Cc2c[nH]c4ccccc24)NC(=O)[C@H](CCCCN)NC(=O)[C@H](Cc2cnc[nH]2)NC(=O)[C@H](CCCNC(=N)N)NC(=O)[C@H](CCCNC(=N)N)NC(=O)[C@H](CO)NC3=O)NC(=O)[C@H](CCCCN)NC(=O)[C@H](CC(=O)O)NC(=O)[C@H](CC(N)=O)NC(=O)[C@H](CC(=O)O)NC(=O)[C@@H]2CCCN2C1=O [[Arg26]GpTx-1(1-34)] (H-DCLGFMRKCIPDNDKCCRPNLVCSRRHKWCKYVF-NH2; disulfide 2-17, 9-23, 16-30)
[2]
  IC50: 10 nM
[3]
  IC50: 573 nM
